The values below come from article PMC9574860, “Chemical Toolkit for PARK7: Potent, Selective, and High-Throughput” (Journal of Medicinal Chemistry, 2022).

For orientation: IC50 means the point on the concentration scale where inhibition reaches its midpoint. One may read the kinact/KI as the maximal inactivation rate divided by the concentration that gives half of it.

Test [1] has as its target T1, UCHL1 (Homo sapiens, UniProt P09936).
T1 sequence (P09936 1-223): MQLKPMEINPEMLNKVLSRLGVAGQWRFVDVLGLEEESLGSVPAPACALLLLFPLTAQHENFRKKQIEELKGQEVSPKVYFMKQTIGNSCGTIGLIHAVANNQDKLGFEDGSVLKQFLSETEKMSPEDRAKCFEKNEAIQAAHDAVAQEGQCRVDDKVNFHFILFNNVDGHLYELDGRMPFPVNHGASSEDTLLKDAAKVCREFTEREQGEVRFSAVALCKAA
The test is described as follows: UCHL1 activity assay (Ub-Rho-Morpholine or Ub-AMC substrate). The test is classed as biochemical. The following applies: UCHL1 1 nM, 1 h preincubation; read-out: UbRhoMP assay UCHL1 IC50. The procedure:
The assay was performed in a buffer containing 50 mM Tris·HCl, 100 mM NaCl at pH 7.5, 2.0 mM cysteine, 1 mg/mL 3-[(3-cholamidopropyl)dimethylammonio]propanesulfonic acid (CHAPS), and 0.5 mg/mL bovine serum albumin and conducted in a 384-well plate (Corning 3820) with a reaction volume 20 μL in triplicate. The compounds were dissolved in DMSO as 10, 1, and 0.1 mM stock solutions and were transferred to obtain a 12-point serial dilution of 0.05 to 200 μM. Next, UCHL1 (15 μL, final concentration of 1 nM) was dispensed with a Biotek MultiFlowFX liquid dispenser and incubated for 1 h, followed by dispensing the substrate Ub-Rho-Morpholine or Ub-AMC (5 μL, final concentration of 400 nM). The FI signal was monitored with a BMG Labtech PHERAstar plate reader (λex/em 487/535 nm or λex/em 350/450 nm) for 1 h. N-Ethylmaleimide (NEM, 10 mM) was used as a positive control (100% inhibition), and DMSO was used as a negative control (0% inhibition). All samples were normalized to the positive and negative controls and plotted against the inhibitor concentrations (in μM) using the built-in equation “[inhibitor] vs response – variable slope (four parameters), least-squares fit” with constraints “Bottom = 0” and “Top = 100” in GraphPad Prism 9.0.1 software to obtain the IC50 values.

In a further test the test system is DUBs. The test is described as follows: DUB activity profiling in HEK293T cell lysate with general DUB probe Rho-Ub-PA. The test is classed as biochemical. The conditions noted are these: compound 5 μM 1 h 37 °C, then Rho-Ub-PA 30 min, Figure S5. The procedure:
Due to the structural similarity of PARK7 inhibitor JYQ-88 and UCHL1 inhibitor 8RK64 and the fact that many cyanimide-containing compounds have been identified as DUB inhibitors,[35],[37] we investigated the inhibitory potential of JYQ-88 and JYQ-92 toward DUBs. After treating the HEK293T cell lysate with JYQ-88 and JYQ-92, along with UCHL1 inhibitors, 6RK73 and 8RK64 as controls,[38] the remaining activity of DUBs was determined using the general DUB probe Rho-Ub-PA (Figure S5).[39]
Figure S5. Fluorescence labeling of DUBs to investigate their remaining activity by Rh-Ub-
PA after the treatment with PARK7 inhibitor JYQ-88 and probe JYQ-92. UCHL1 inhibitors,
6RK73 and 8RK64, were used as a control. HEK293T cell lysate was treated with 5 μM final
MOPS SDS running buffer (Novex, NuPAGE) and visualized by fluorescence scanning on a
Typhoon FLA 9500 (GE Healthcare Life Sciences) using a Rhodamine channel (λex/em
(1 picture or pasted object on this page, not shown here)

Test [2] concerns the target T1, UCHL1. The test is described as follows: JYQ-92 labeling in HEK293T cell lysate with UCHL1 knockdown. The conditions noted are these: HEK293T lysate with PARK7 or UCHL1 knockdown, probe 1 μM; Figure 4D.
Experimental: (§1) We next investigated the ability of JYQ-92 to label PARK7 activity in HEK293T cell lysates by treating with the increasing concentration of JYQ-92 (0–5 μM) for 1 h. […] To study its specificity toward PARK7 compared to UCHL1 in more detail, HEK293T cell lysates where we knockdown PARK7 or UCHL1 were treated with 1 μM final concentration of JYQ-92.
(§2) The samples were kept on ice and sonicated using 10 cycles of 30 s pulse on and 30 s pulse off (Bioruptor, Diagenode). […] For the labeling experiments, the prepared cell lysate was incubated with an indicated concentration of JYQ-92 in each experiment for 1 h at 37 °C. The reactions were stopped by adding NuPAGE LDS sample buffer (4×).
Test [3] concerns the target T2, PARK7 (Homo sapiens, UniProt Q99497).
T2 sequence (Q99497 1-189): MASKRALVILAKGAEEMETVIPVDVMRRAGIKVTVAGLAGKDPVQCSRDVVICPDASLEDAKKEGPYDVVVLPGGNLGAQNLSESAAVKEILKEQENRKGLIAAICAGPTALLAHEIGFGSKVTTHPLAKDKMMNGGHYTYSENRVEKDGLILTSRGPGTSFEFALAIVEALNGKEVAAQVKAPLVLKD
The experiment in a line: Probe JYQ-92 labeling of endogenous PARK7 in HEK293T cell lysate. The conditions noted are these: 0–5 μM probe, 1 h, Figure 4C.
Experimental: as §1, §2

The target of test [4] is T2, PARK7. The experiment in a line: Probe labeling of purified recombinant PARK7 (SDS-PAGE, fluorescence scanning). It counts as binding. On the set-up: GST (N, cleaved yes); made in house; host or cells: E. coli BL21(DE3) Rosetta2. The conditions noted are these: for Probe concentration from which PARK7 labeling was observed: purified PARK7 1 μM, 1 h 37 °C, Figure 4A. The source says: PARK7 inhibitor JYQ-88 was further converted into activity-based probes by installing SulfoCy5, Rhodamine110, or BodipyFL. We took advantage of the azide moiety in JYQ-88 and conjugated alkyne versions of these dyes using the copper(I)-catalyzed azide alkyne cycloaddition (CuAAC) to obtain compounds JYQ-92, JYQ-93, and JYQ-107 (Scheme 2). We next investigated the ability of the probes to label and visualize PARK7. […] The SulfoCy5 probe JYQ-92 and Rhodamine110 probe JYQ-107 labeled PARK7 already at 1 μM, while the BodipyFL probe JYQ-93 was less efficient than the other probes as PARK7 labeling was only observed from 5 μM.
All the labeling assays were performed in Tris buffer (50 mM Tris–HCl, 150 mM NaCl, 2 mM TCEP, pH 7.5). For labeling with the 8RK59 probe, 1 μM final concentrations of UCHL1 and PARK7 were individually or together incubated with 2 μM final concentrations of 8RK59 for 30 min at 37 °C, followed by protein visualization. For labeling with JYQ-92, JYQ-93, and JYQ-107, 1 μM final concentration of PARK7 was incubated with different concentrations (0, 0.1, 0.5, 1, 2, 5, and 10 μM) of the indicated probes for 1 h at 37 °C. […] These samples were resolved by SDS-PAGE using precast Bis-Tris gels (Invitrogen, NuPAGE) with MES SDS running buffer (Novex, NuPAGE).

Test [5] has as its target T2, PARK7. The test is described as follows: FP binding saturation experiment, kinact/KI of probe JYQ-107. Details: GST (N, cleaved yes); made in house; host or cells: E. coli BL21(DE3) Rosetta2. The following applies: FP probe binding to PARK7 (0 to 5 μM); slope of kobs vs PARK7 concentration; Figure S6D. On the procedure:
First, the relation between the change in FP values for JYQ-107 binding to PARK7 was determined. We used a fixed concentration (20 nM) of JYQ-107, incubated it with different amounts of PARK7 (0 to 5 μM), and monitored the FP signal (λex/em 485/520 nm) over time (Supporting Information Figure S6A). The change in FP (ΔmP) was plotted against PARK7 concentration after different incubation times (Figure 5B, left, Supporting Information Figure S6B). […] The latter is expected, as covalent complex formation has a time-dependency, and thus, equilibrium binding values could not be determined for the FP reagent.[45] […] To this end, we calculated the Z’ value, a critical parameter used to assess the quality and HTS suitability of a given assay, for the used PARK7 concentrations and incubation times (Figure 5B, right, Supporting Information Figure S6C).[46] […]
This assay was performed in the buffer containing 50 mM Tris–HCl, 150 mM NaCl, 2 mM TCEP, pH 7.5, and 1 mg/mL CHAPS and conducted in a 384-well plate (Corning 3820) with a reaction volume 20 μL in triplicate. A serial dilution of PARK7 from 0 to 5 μM (final concentration) was mixed with constant concentration JYQ-107 ([…]), and the increasing FP signal over time was measured at λex/em 480/520 nm using a PHERAstar (BMG Labtech) for 150 min. […]

Turning to `CC[N+]1=C(/C=C/C=C/C=C2/N(CCCCCC(=O)NCCCc3cn(CC(=O)N4CCc5nc(NC(=O)[C@@H]6CCN(C#N)C6)sc5C4)nn3)c3ccc(S(=O)(=O)O)cc3C2(C)C)C(C)(C)c2cc(S(=O)(=O)[O-])ccc21` [JYQ-92], the IC50 on UCHL1 [1] came out at 19.8 µM. In the test with DUBs, the “Effect on remaining DUB activity (Rho-Ub-PA labeled bands)” value is “no influence on DUB activity”. Further, at UCHL1 [2], the “Binding to UCHL1 in the cell lysate” value was “not to UCHL1”. In addition, the “Probe concentration at which a clear PARK7 band (20 kDa) was observed” value at PARK7 [3] stood at 0.5 µM. Further, the “Binding to wild-type PARK7” value on PARK7 [4] (probe 2 μM, 1 h, Figure 4B) is listed as “only binds to the active wild-type PARK7”. For the same compound, the “Probe concentration from which PARK7 labeling was observed” value on PARK7 [4] came to 1 µM.
Take `N#CN1CC[C@@H](C(=O)Nc2nc3c(s2)CN(C(=O)Cn2cc(CCCNC(=O)c4ccc(-c5c6ccc(=N)cc-6oc6cc(N)ccc56)c(C(=O)O)c4)nn2)CC3)C1` [JYQ-107]: at UCHL1 [1], the IC50 came to 18.5 µM. Moreover, the kinact/KI at PARK7 [5] turned out to be 1180 M⁻¹ s⁻¹. At PARK7 [4], the “Probe concentration from which PARK7 labeling was observed” value came to 1 µM.
